From paper PMC9783868, “Indoline-5-Sulfonamides: A Role of the Core in Inhibition of Cancer-Related Carbonic Anhydrases, Antiproliferative Activity and Circumventing of Multidrug Resistance” (Pharmaceuticals, 2022) come the findings set out here.

Where two headings read alike, the source gives them in different places. Some results are limits rather than exact numbers.

For one data set, the system named is A431 skin cancer cells. The data set can be described thus: Antiproliferative activity, MTT test. The following applies: 72 h, normoxia. Type of data set: cell-based, human. The source says: To evaluate the influence of CA inhibition on the antiproliferative activity, we selected five compounds 4b, f, m, n and 10 with different inhibition profiles against CA IX for in-depth testing on cancer cells with increased CA IX expression. The database www.proteinatlas.org (accessed on 13 October 2022) contains data on gene expression in various cell lines. According to the data obtained from this database, A431 cells express CA IX at a very high level, which distinguishes them from human cell lines belonging to other tissues [https://www.proteinatlas.org/ENSG00000107159-CA9/cell+line (accessed on 13 October 2022)]. A431 cells are skin cancer cells, and their growth has already been intensely analyzed in hypoxia. […] Moreover, Ren and colleagues described that hypoxia modulates cellular pathways in A431 cells, which are associated with radioresistance and enhanced migration. Given the observations described above, we were expecting to reveal the high antiproliferative activity of the selected compounds against skin cancer cells. […] In hypoxia, the activity of tested compounds was increased, but the 50% inhibition of growth was never achieved.
(§1) The MCF7 human breast, A431 human skin cancer cells and K562 (ATCC CCL-243) chronic myelogenous leukemia cells were obtained from the ATCC collection. The MDR subline K562/4 [77] […] The growth inhibitory activity of compounds was assessed by the MTT test based on the metabolism of the MTT reagent (3-[4,5-dimethylthiazol-2-yl]-2,5-diphenyltetrazolium bromide) (Applichem) in living cells, with modifications as described previously in [49]. […] Culture plates were gently shaken, and the absorbance was measured at 571 nm with a reference wavelength of 630 nm on a MultiScan reader (ThermoFisher, Waltham, MA, USA). The viability of the cells was expressed as a percentage of the control. Dose-response curves were analyzed by regression analysis using sigmoid curves (Log(concentration) vs. normalized absorbance).
On the technique in general: Tetrazolium dyes change colour on reduction, which living cells bring about.

The target of another data set is T1, hCA I (Homo sapiens, UniProt P00915).
T1 construct: made in house
T1 sequence (P00915 whole entry): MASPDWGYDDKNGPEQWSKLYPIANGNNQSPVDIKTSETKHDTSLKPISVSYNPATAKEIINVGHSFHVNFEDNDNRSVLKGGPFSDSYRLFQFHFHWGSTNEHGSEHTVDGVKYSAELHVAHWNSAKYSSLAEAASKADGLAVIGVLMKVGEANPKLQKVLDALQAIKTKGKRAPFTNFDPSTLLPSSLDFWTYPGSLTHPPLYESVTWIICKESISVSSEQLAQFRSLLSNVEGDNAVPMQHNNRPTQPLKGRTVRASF
In words: CA inhibition, stopped-flow CO2 hydration assay. In kind it is biochemical. The following applies: stopped-flow technique; mean from three assays. As for the experimental part:
(§2) The CO2 hydration activity of the four hCA isoforms was monitored using an Applied Photophysics stopped-flow instrument. Phenol red (at a concentration of 0.2 mM) was used as an indicator, working at the absorbance maximum of 557 nm, with 10 mM HEPES (pH 7.4) as a buffer, and 20 mM NaClO4 (for maintaining constant the ionic strength), following the initial rates of the CA-catalyzed CO2 hydration reaction for a period of 10–100 s. To determine the kinetic parameters by Lineweaver-Burk plots and the inhibition constants, a concentration of CO2 between 1.7 to 17 mM was used. At least six measurements of the original 5–10% reaction were used to assess the initial velocity for each inhibitor. The uncatalyzed rates were determined and detracted from the total observed rates. Stock inhibitor solutions (10–100 mM) were prepared in distilled-deionized water, and dilutions up to 0.1 nM were done with the buffer test. […] The inhibition constants were obtained by non-linear least-squares methods using PRISM 6 and the Cheng-Prusoff equation, as reported earlier, and represent the mean from at least three different determinations.

Another data set has as its target T2, hCA IX (Homo sapiens, UniProt Q16790).
T2 construct: made in house
In words: CA inhibition, stopped-flow CO2 hydration assay. Type of data set: biochemical. The following applies: stopped-flow technique; mean from three assays. As for the experimental part:
as §2

Another data set has as its target T3, hCA II (Homo sapiens, UniProt P00918).
T3 construct: made in house
The data set can be described thus: CA inhibition, stopped-flow CO2 hydration assay. The following applies: stopped-flow technique; mean from three assays. Type of data set: biochemical. As for the experimental part: as §2

For the next data set, the target named is T4, hCA XII (Homo sapiens, UniProt O43570).
T4 construct: made in house
T4 sequence (O43570 25-354): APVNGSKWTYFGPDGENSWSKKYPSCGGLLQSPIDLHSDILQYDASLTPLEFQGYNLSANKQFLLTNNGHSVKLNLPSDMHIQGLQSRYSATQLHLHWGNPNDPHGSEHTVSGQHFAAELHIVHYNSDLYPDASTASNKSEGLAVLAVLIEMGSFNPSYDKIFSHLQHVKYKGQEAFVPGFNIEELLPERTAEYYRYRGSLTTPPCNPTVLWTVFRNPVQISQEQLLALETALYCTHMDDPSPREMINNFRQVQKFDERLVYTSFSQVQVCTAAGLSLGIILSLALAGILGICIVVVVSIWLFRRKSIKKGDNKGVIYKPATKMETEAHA
In words: CA inhibition, stopped-flow CO2 hydration assay. Type of data set: biochemical. The following applies: stopped-flow technique; mean from three assays. As for the experimental part: as §2

In another data set the test system is MCF7 cells. The data set can be described thus: Antiproliferative activity, MTT test. Type of data set: cell-based. The following applies: Homo sapiens, MTT assay after 72 h exposure. As for the experimental part:
A series of synthesized indoline-5-sulfonamides was tested on the MCF7 cancer cell line under normoxia and hypoxia using the MTT test.
The MDR subline K562/4 [77] (kind gift of Dr. Alexander Shtil, Blokhin N.N. National Medical Research Center of Oncology) was obtained by stepwise selection of K562 cells for survival under continuous exposure to Dox. This subline expresses the MDR1 gene and functional P-gp and is characterized by a high resistance index for Dox. […] Cells in the logarithmic phase of growth were used in the experiments. The growth inhibitory activity of compounds was assessed by the MTT test based on the metabolism of the MTT reagent (3-[4,5-dimethylthiazol-2-yl]-2,5-diphenyltetrazolium bromide) (Applichem) in living cells, with modifications as described previously in [49]. Compounds at different concentrations in 100 μL of the appropriate medium were added, and the cells were grown for 72 h. The hypoxia (1% O2) conditions were simulated in Binder multigas incubator, as described in [49]. After incubation with compounds, the medium was removed, the MTT reagent that was dissolved in the medium was added to the final concentration of 0.2 mg/mL to each well, and the incubation was performed for 2 h. Then the cell supernatants were removed, and purple formazan crystals were dissolved in 100% DMSO (350 μL per well). Culture plates were gently shaken, and the absorbance was measured at 571 nm with a reference wavelength of 630 nm on a MultiScan reader (ThermoFisher, Waltham, MA, USA). The viability of the cells was expressed as a percentage of the control. Dose-response curves were analyzed by regression analysis using sigmoid curves (Log(concentration) vs. normalized absorbance).
All results were reported as means ± SD. One-way analysis of variance was used for the analysis of data. Differences were defined as significant at p < 0.05. GraphPad Prism7 (GraphPad Software, San Diego, CA, USA) was used for the determination of the half-maximal inhibitory concentration (IC50) values.

For the next data set, the system named is K562/4 cells. The data set can be described thus: Reversal of chemoresistance to Dox, MTT test. In kind it is cell-based, human. The source says: Earlier, Kopecka and colleagues have shown that CA XII can interact with P-gp and influence its activity. Subsequently, silencing or inhibition of CA XII by chemical agents may restore the sensitivity to Dox of resistant K562 and other tumor cells. Given the potent inhibition of 4f against CA XII and the activity of 4e against K562, we examined their ability to reverse the chemoresistance of K562/4 with P-gp to Dox.
The MCF7 human breast, A431 human skin cancer cells and K562 (ATCC CCL-243) chronic myelogenous leukemia cells were obtained from the ATCC collection. The MDR subline K562/4 [77] (kind gift of Dr. Alexander Shtil, Blokhin N.N. National Medical Research Center of Oncology) was obtained by stepwise selection of K562 cells for survival under continuous exposure to Dox. This subline expresses the MDR1 gene and functional P-gp and is characterized by a high resistance index for Dox. The MCF7 and A431 cells were cultured in standard 4.5 g/L glucose DMEM medium (Gibco) supplemented with 10% FCS (HyClone), 2 mM L-glutamine, 50 U/mL penicillin, 50 µg/mL streptomycin (PanEco), 100 µg/mL sodium pyruvate (Santa Cruz) at 37 °C, 5% CO2 and 80–85% humidity in NuAire incubator. Suspension myelogenous leukemia cells (K562, K562/4) were propagated in RPMI-1640 (PanEco) with 5% FCS (HyClone), 2 mM L-glutamine, 100 U/mL penicillin, and 100 µg/mL streptomycin at 37 °C, 5% CO2, and 80–85% humidity in Binder incubator. Cells in the logarithmic phase of growth were used in the experiments. The growth inhibitory activity of compounds was assessed by the MTT test based on the metabolism of the MTT reagent (3-[4,5-dimethylthiazol-2-yl]-2,5-diphenyltetrazolium bromide) (Applichem) in living cells, with modifications as described previously in [49]. Compounds at different concentrations in 100 μL of the appropriate medium were added, and the cells were grown for 72 h. The hypoxia (1% O2) conditions were simulated in Binder multigas incubator, as described in [49]. After incubation with compounds, the medium was removed, the MTT reagent that was dissolved in the medium was added to the final concentration of 0.2 mg/mL to each well, and the incubation was performed for 2 h. Then the cell supernatants were removed, and purple formazan crystals were dissolved in 100% DMSO (350 μL per well). Culture plates were gently shaken, and the absorbance was measured at 571 nm with a reference wavelength of 630 nm on a MultiScan reader (ThermoFisher, Waltham, MA, USA). The viability of the cells was expressed as a percentage of the control. Dose-response curves were analyzed by regression analysis using sigmoid curves (Log(concentration) vs. normalized absorbance).
Figure 6 Susceptibility of resistant K562/4 line to combinations of Dox (25 µM) with indoline-5-sulfonamides 4e and 4f. […]

The next data set deals with K562 cells. The data set can be described thus: Antiproliferative activity, MTT test. Type of data set: cell-based, human.
Excerpt: Next, we examined the activity of the whole series of indoline-5-sulfonamides against leukemia cell line K562.
as §1, with “[77] (kind gift of Dr. Alexander Shtil, Blokhin N.N. National Medical Research Center of Oncology) was obtained by stepwise selection of K562 cells for survival under continuous exposure to Dox. This subline expresses the MDR1 gene and functional P-gp and is characterized by a high resistance index for Dox.” for “[77]”

Where [1] appears, read: hypoxia (1% O2), read-out: IC50 against MCF7 Cells, Hypoxia.
The mark [2] stands for this setting: normoxia, read-out: IC50 against MCF7 Cells, Normoxia.

Broadly, the Ki is the equilibrium dissociation constant of an inhibitor or competing ligand from its target. A lower Ki goes with a stronger hold on the target. The term melting point denotes the temperature, or range, at which the solid turns liquid. One may read the IC50 as the concentration needed to halve the response being measured.

On to `NS(=O)(=O)c1ccc2c(c1)CCN2C(=O)c1cccc(F)c1` [Compound 4b, 1-(3-Fluorobenzoyl)indoline-5-sulfonamide], for which the melting point is > 250 °C. Further, the “inhibition of growth of A431 cells, normoxia” value in the data set with A431 skin cancer cells is reported as “least active”. Also, the Ki on hCA I is 65.9 nM. For the same compound, at hCA IX, the Ki is > 10000 nM. The Ki on hCA II worked out at 5.6 nM. Besides, the inhibition constant (Ki) on hCA XII was > 10000 nM. In the data set with MCF7 cells (setting [1]), the IC50 is > 50000 nM. The IC50 in the data set on MCF7 cells (setting [2]) was > 50000 nM.
`NS(=O)(=O)c1ccc2c(c1)CCN2C(=O)c1c(F)c(F)c(F)c(F)c1F` [Compound 4e, 1-(Perfluorobenzoyl)indoline-5-sulfonamide]: the melting point was in the range of 187 to 189 °C. The “effect of combination with Dox on viable K562/4 cells” value in the data set on K562/4 cells (combination with Dox (25 µM)) is on record as “decline of viable K562/4 cells”. The “cytotoxic activity against MDR subline K562/4 as monoagent” value with K562/4 cells (monoagent) is “low cytotoxic activity”. Affinity at hCA I was put at a Ki of 52.2 nM. Also, the Ki at hCA IX is 1300 nM. In addition, on hCA II, the Ki stood at 3.4 nM. The Ki on hCA XII is 127 nM. Also, the “concentration inhibiting growth of K562 cells” value in the data set on K562 cells came to 10 µM. Also, in the data set with MCF7 cells (setting [1]), the IC50 was determined as 20200 ± 2000 nM. Further, in the data set on MCF7 cells (setting [2]), the IC50 amounted to 29900 ± 2700 nM.
For the compound `COc1cc(C(=O)N2CCc3cc(S(N)(=O)=O)ccc32)cc(OC)c1OC` [Compound 4m, 1-(3,4,5-Trimethoxybenzoyl)indoline-5-sulfonamide], the melting point fell in the range of 248 to 250 °C. Besides, the “inhibition of growth of A431 cells, normoxia” value with A431 skin cancer cells is recorded as “least active”. This compound also displayed a Ki on hCA I of 49 nM. In addition, on hCA IX, the Ki is > 10000 nM. Further, the Ki at hCA II stood at 3 nM. In addition, on hCA XII, the Ki was 103 nM. Also, the half-maximal inhibitory concentration (IC50) in the data set on MCF7 cells (setting [1]) was determined as 36700 ± 3200 nM. Besides, the IC50 in the data set with MCF7 cells (setting [2]) came to 29600 ± 2200 nM.
As to `NS(=O)(=O)c1ccc2c(c1)CCN2Cc1ccccc1` [Compound 10, 1-Benzylindoline-5-sulfonamide], the melting point fell in the range of 144 to 146 °C. The same compound registered a Ki on hCA I of 41 nM. The Ki at hCA IX was > 10000 nM. Moreover, the affinity at hCA II corresponds to a Ki of 3 nM. Further, the Ki on hCA XII was > 10000 nM. Further, the IC50 with MCF7 cells (setting [1]) stood at 34800 ± 3200 nM. Also, in the data set on MCF7 cells (setting [2]), the IC50 was 23600 ± 2000 nM.
